Assay results from publication PMC9048841 (Journal of medicinal chemistry, 2022).
*1 amine or outer side, *2 acyl side, *3 side chain or, on linkers, in order; H or OH if unused. Where a SMILES comes first, the peptide text is derived from it. [ ]: non-standard residue; d: D form. The star is where a group is joined. Phe(3,4-(OMe)2) = COc1ccc(C[C@H](N)C(=O)O)cc1OC; Lys(Et,iPr) = CCN(CCCC[C@H](N)C(=O)O)C(C)C; X2 = O=C(C(N[*:1])[C@@H](O)c1ccccc1)[*:2]; Lys(Et2) = CCN(CC)CCCC[C@H](N)C(=O)O; Lys(Me2) = CN(C)CCCC[C@H](N)C(=O)O; X1 = O=C(c1ccoc1)*

Tests used:
[1] = molecular target: CBX5 chromodomain (wild type) (Homo sapiens, UniProt P45973); assay: ITC binding to wild-type CBX5 chromodomain; conditions: for fold tighter binding of CBX5 than to UNC6212 (Kme2): wild-type CBX5, relative to UNC6212
[2] = molecular target: H3K9me3 peptide (Homo sapiens) (UniProt P68431); conditions: cited from earlier work

| Compound | Kd [1] [µM] | fold tighter binding than HP1 with H3K9me3 ([1]; CBX5 with UNC6212 vs HP1 with H3K9me3) | fold more potent than histone tail peptides H3K9me3 and H3K9me2 ([1]; KD for CBX5, ligand vs H3K9me3 and H3K9me2) | fold tighter binding of CBX5 than to UNC6212 (Kme2) [1] | Kd [2] [µM] |
| --- | --- | --- | --- | --- | --- |
| COc1ccc(C[C@H](NC(=O)[C@H](C)NC(=O)C(NC(=O)c2ccoc2)[C@@H](O)c2ccccc2)C(=O)N[C@@H](CCCCN(C)C)C(=O)N[C@@H](CO)C(N)=O)cc1OC (stereo partly drawn) [UNC6212, N-((7S,10S,13S,17S)-7-(((S)-1-amino-3-hydroxy-1-oxopropan-2-yl)carbamoyl)-10-(3,4-dimethoxybenzyl)-17-hydroxy-2,13-dimethyl-9,12,15-trioxo-17-phenyl-2,8,11,14-tetraazaheptadecan-16-yl)furan-3-carboxamide] (X1-[X2]A[Phe(3,4-(OMe)2)][Lys(Me2)]S-NH2) | 5.7 | about 2.5 fold | about 5 fold |  |  |
| CCN(CC)CCCC[C@H](NC(=O)[C@H](Cc1ccc(OC)c(OC)c1)NC(=O)[C@H](C)NC(=O)C(NC(=O)c1ccoc1)[C@@H](O)c1ccccc1)C(=O)N[C@@H](CO)C(N)=O (stereo partly drawn) [UNC6349, N-((8S,11S,14S,18S)-8-(((S)-1-amino-3-hydroxy-1-oxopropan-2-yl)carbamoyl)-11-(3,4-dimethoxybenzyl)-3-ethyl-18-hydroxy-14-methyl-10,13,16-trioxo-18-phenyl-3,9,12,15-tetraazaoctadecan-17-yl)furan-3-carboxamide] (X1-[X2]A[Phe(3,4-(OMe)2)][Lys(Et2)]S-NH2) |  |  |  | about 2 fold |  |
| CCN(CCCC[C@H](NC(=O)[C@H](Cc1ccc(OC)c(OC)c1)NC(=O)[C@H](C)NC(=O)C(NC(=O)c1ccoc1)[C@@H](O)c1ccccc1)C(=O)N[C@@H](CO)C(N)=O)C(C)C (stereo partly drawn) [UNC6864, N-((8S,11S,14S,18S)-8-(((S)-1-amino-3-hydroxy-1-oxopropan-2-yl)carbamoyl)-11-(3,4-dimethoxybenzyl)-3-ethyl-18-hydroxy-2,14-dimethyl-10,13,16-trioxo-18-phenyl-3,9,12,15-tetraazaoctadecan-17-yl)furan-3-carboxamide] (X1-[X2]A[Phe(3,4-(OMe)2)][Lys(Et,iPr)]S-NH2) | 3.3 |  |  | about 2 fold |  |
| CBX5 (from UniProt P45973) |  |  |  |  | 30 |
